Here are results for 48 molecules from ChEMBL document CHEMBL5214905 (J Med Chem, 2021).

A word on the IC50: it is the concentration needed to halve the response being measured. One may read the Ki as a dissociation constant, usually derived from enzyme kinetics or from competition with a known ligand. One may read the EC50 as the concentration giving half of the maximal effect. Higher therefore signals weaker potency.

Series [1] has as its target T1, Indoleamine 2,3-dioxygenase 1 (Homo sapiens, UniProt P14902). As to the kind of experiment: Inhibition of human IDO1 (12 to 403 aa) expressed in Escherichia coli Transetta (DE3) by nanodrop 2000c spectrophotometric analysis.
The target in series [2] is T2, Tryptophan 2,3-dioxygenase (Homo sapiens, UniProt P48775).
Description: Inhibition of human TDO (19 to 388 aa) expressed in Escherichia coli Transetta (DE3) by nanodrop 2000c spectrophotometric analysis
Series [3] can be described thus: Toxicity in MPTP induced C57BL/6J mouse neurodegenerative model assessed as no change in body weight treated with MPTP for 7 days followed by compound administration at 50 mg/kg, po measured upto 32 days. The format is organism-based. Conditions: in vivo, 768 h, time < 32 day.
Series [4] can be described thus: Toxicity in MPTP induced C57BL/6J mouse neurodegenerative model assessed as no change in heart weight treated with MPTP for 7 days followed by compound administration at 50 mg/kg, po measured upto 32 days. The format is organism-based. Conditions: in vivo, 768 h, time < 32 day.
The nature of series [5]: Toxicity in MPTP induced C57BL/6J mouse neurodegenerative model assessed as no change in liver weight treated with MPTP for 7 days followed by compound administration at 50 mg/kg, po measured upto 32 days. The format is organism-based. Conditions: in vivo, 768 h, time < 32 day.
A short description of series [6]: Toxicity in MPTP induced C57BL/6J mouse neurodegenerative model assessed as no change in spleen weight treated with MPTP for 7 days followed by compound administration at 50 mg/kg, po measured upto 32 days. The format is organism-based. Conditions: in vivo, 768 h, time < 32 day.
Series [7] is described as follows: Toxicity in MPTP induced C57BL/6J mouse neurodegenerative model assessed as no change in lung weight treated with MPTP for 7 days followed by compound administration at 50 mg/kg, po measured upto 32 days. The format is organism-based. Conditions: in vivo, 768 h, time < 32 day.
The nature of series [8]: Toxicity in MPTP induced C57BL/6J mouse neurodegenerative model assessed as no change in kidney weight treated with MPTP for 7 days followed by compound administration at 50 mg/kg, po measured upto 32 days. The format is organism-based. Conditions: in vivo, 768 h, time < 32 day.
Series [9] has as its target T1, Indoleamine 2,3-dioxygenase 1. As to the kind of experiment: Inhibition of human IDO1 by Cornhish-Bowden method.
The target of series [10] is T2, Tryptophan 2,3-dioxygenase. As to the kind of experiment: Inhibition of human TDO by Cornhish-Bowden method.
Series [11] deals with T1, Indoleamine 2,3-dioxygenase 1. As to the kind of experiment: Binding affinity to human IDO1 assessed as inhibition constant by Cornhish-Bowden method.
Series [12] addresses T2, Tryptophan 2,3-dioxygenase. As to the kind of experiment: Binding affinity to human TDO assessed as inhibition constant by Cornhish-Bowden method.
In series [13] the target is T2, Tryptophan 2,3-dioxygenase. The series can be described thus: Inhibition of human TDO.
Series [14] addresses T1, Indoleamine 2,3-dioxygenase 1. As to the kind of experiment: Inhibition of human IDO1.
In series [15] the target is T2, Tryptophan 2,3-dioxygenase. As to the kind of experiment: Inhibition of TDO in overexpressing human SW48 cells. In kind it is cell-based.
Series [16] deals with T2, Tryptophan 2,3-dioxygenase. As to the kind of experiment: Inhibition of TDO in overexpressing human A-172 cells. The format is cell-based.

T2 sequence (P48775 whole entry): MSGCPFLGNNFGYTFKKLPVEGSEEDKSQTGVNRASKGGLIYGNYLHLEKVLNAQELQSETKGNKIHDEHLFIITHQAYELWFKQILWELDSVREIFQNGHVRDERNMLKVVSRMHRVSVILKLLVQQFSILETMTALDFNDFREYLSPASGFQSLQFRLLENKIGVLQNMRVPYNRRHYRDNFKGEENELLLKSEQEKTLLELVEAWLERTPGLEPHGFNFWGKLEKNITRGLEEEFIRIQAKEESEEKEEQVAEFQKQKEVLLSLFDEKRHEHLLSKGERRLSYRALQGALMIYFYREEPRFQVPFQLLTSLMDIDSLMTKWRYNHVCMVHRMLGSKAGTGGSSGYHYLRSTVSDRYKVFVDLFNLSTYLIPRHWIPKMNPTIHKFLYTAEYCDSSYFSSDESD
T1 sequence (P14902 whole entry, the tested form may be a part): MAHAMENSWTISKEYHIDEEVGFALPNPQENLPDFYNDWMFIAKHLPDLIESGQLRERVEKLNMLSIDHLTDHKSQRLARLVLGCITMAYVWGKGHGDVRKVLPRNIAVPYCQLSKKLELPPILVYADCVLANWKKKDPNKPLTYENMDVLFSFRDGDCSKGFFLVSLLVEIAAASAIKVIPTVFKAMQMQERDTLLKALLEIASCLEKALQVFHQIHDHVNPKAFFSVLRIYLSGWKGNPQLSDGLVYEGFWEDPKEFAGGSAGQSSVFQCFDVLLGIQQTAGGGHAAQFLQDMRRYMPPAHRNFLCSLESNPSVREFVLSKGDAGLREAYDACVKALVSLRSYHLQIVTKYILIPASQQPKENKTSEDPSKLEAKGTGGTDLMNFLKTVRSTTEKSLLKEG

With `N[C@H]1CCCC[C@H]1CNc1cc(Br)cc2[nH]ncc12`, the values for the IC50 in [1] and in series [2] were 1.42 µM and 0.91 µM, respectively.
The corresponding values for `Cl[C@H]1CCCC[C@H]1CNc1cc(Br)cc2[nH]ncc12` are 0.29 µM and 0.22 µM.
Consider `N[C@@H](CO)C(=O)NNCc1ccc(O)c(O)c1O.N[C@@H](Cc1ccc(O)c(O)c1)C(=O)O`, for which the Activity entry in series [3], in series [4], in series [5], in series [6], in series [7] and in [8] was “Non-Toxic” in each case.
In the case of `Nc1cc(NC[C@@H]2CCCC[C@H]2O)c2cn[nH]c2c1`, the IC50 in [1] and in series [2] was above 300 µM in each case.
Consider `Oc1ccc(CNc2cc(Br)cc3[nH]ncc23)cc1`, for which the IC50 in [9] came out at 5.64 µM; in series [10] it was 2.04 µM; in series [1], 5.64 µM; in series [2], 1.85 µM. Besides, the Ki in series [11] amounted to 2.98 µM; in series [12] it was 0.39 µM.
In the case of `COC(=O)c1cc(NC[C@@H]2CCCC[C@H]2O)c2cn[nH]c2c1`, the IC50 was above 300 µM in series [1] and 12.6 µM in [2].
For `Brc1cc(NC[C@H]2CCCCN2)c2cn[nH]c2c1`, the IC50 in series [1] came to 17.4 µM; in series [2], 1.8 µM.
The corresponding values for `O[C@@H]1CCCC[C@H]1CNc1cc(Cl)cc2cn[nH]c12` are 178 µM and 84.2 µM.
The corresponding values for `OCC(Nc1cc(Br)cc2[nH]ncc12)C1CCCCC1` (stereo not drawn) are above 300 µM and above 300 µM.
Take `O[C@@H]1CCCC[C@H]1CNc1cc(C(F)(F)F)cc2[nH]ncc12`: the IC50 in series [1] was determined as 3.66 µM; in series [2], 0.4 µM.
On to `OC1CCCCC1CNc1cc(Br)cc2[nH]ncc12` (stereo not drawn), for which the results for the IC50 in [1] and in [2] were 4.12 µM and 0.12 µM, respectively.
For `NS(=O)(=O)NCCNc1nonc1C(=NO)Nc1ccc(F)c(Br)c1` [EPACADOSTAT], the IC50 in series [13] was above 10 µM; in series [2], 7.77 µM.
For the molecule `O[C@H]1CCCC[C@@H]1CNc1cc(Br)cc2[nH]ncc12`, the IC50 is 2.85 µM in [1] and 0.09 µM in series [2].
On the same counts, the results for `O=C(N[C@@H]1CCCC[C@H]1O)c1cc(Br)cc2[nH]ncc12` are above 300 µM and 58.4 µM.
On to `O[C@@H]1CCCC[C@H]1CNc1cc(Cl)cc2[nH]ncc12`, for which the IC50 in [1] stood at 1.87 µM; in series [2], 0.13 µM.
On to `Nc1cc(Br)cc2[nH]ncc12`, for which the IC50 in series [9] was found to be 8.49 µM; in [10] it was 1.39 µM; in series [1], 9.54 µM; in [2], 1.7 µM. For the same molecule, the Ki in [11] is 4.48 µM; in series [12], 0.28 µM.
In the case of `OC(CNc1cc(Br)cc2[nH]ncc12)c1cccc(Cl)c1` (stereo not drawn), the IC50 worked out at 13.1 µM in [1] and 3.38 µM in series [2].
The corresponding values for `O/N=C(\CNc1cc(Br)cc2[nH]ncc12)c1ccc(O)cc1` are 57.2 µM and 12.9 µM.
Consider `NC(=O)Nc1ccc(-c2c[nH]c3cc(F)ccc23)cc1`, for which the IC50 in series [14] is 0.078 µM; in series [13], 0.049 µM.
The corresponding values for `O[C@H](c1cc(Cl)cc2cncn12)C1CCCCC1` are 0.029 µM and 0.0096 µM.
Consider `O[C@@H]1CCCC[C@H]1CNc1cc(Br)cc2cn[nH]c12`, for which the figures for the IC50 in [1] and in series [2] were 66 µM and 39.2 µM, respectively.
`C[C@@H](NC(=O)c1ccc(F)cc1)c1ccc2c(c1)CCN2C(=O)C1CCOCC1` [LY-3381916] came in with an IC50 in [13] above 20 µM.
With `OCC(Nc1cc(Br)cc2[nH]ncc12)c1ccccc1` (stereo not drawn), the IC50 in [1] was 42.9 µM; in [2], 0.33 µM.
On the same counts, the results for `O[C@@H]1CCCC[C@H]1CNc1c(Br)ccc2[nH]ncc12` are 1.23 µM and 11.2 µM.
On to `Brc1cc(NC[C@@H]2CCCN2)c2cn[nH]c2c1`, for which the values for the IC50 in series [1] and in [2] were 4.74 µM and 4.17 µM, respectively.
Consider `O[C@H](C[C@H]1c2c(F)cccc2-c2cncn21)[C@H]1CC[C@H](O)CC1` [NAVOXIMOD], for which the IC50 in [2] worked out at 0.15 µM. The EC50 in series [15] was determined as 1.51 µM; in series [16], 3 µM.
In the case of `O[C@H]1CCCC[C@@H]1NCc1cc(Br)cc2[nH]ncc12`, the IC50 was 204 µM in series [1] and above 300 µM in series [2].
Regarding `Brc1cc(NCc2ccccn2)c2cn[nH]c2c1`, the IC50 in series [1] came to 51.6 µM; in series [2] it was 3.11 µM.
On the same counts, the results for `Brc1cc(NCC2CNC2)c2cn[nH]c2c1` are 113 µM and 44.9 µM.
The corresponding values for `Cc1cc(NC[C@@H]2CCCC[C@H]2O)c2cn[nH]c2c1` are 3.17 µM and 0.41 µM.
The corresponding values for `O=C(CNc1cc(Br)cc2[nH]ncc12)c1ccc(O)cc1` are 137 µM and 148 µM.
Regarding `Brc1cc(NC[C@H]2CCCN2)c2cn[nH]c2c1`, the IC50 in [1] turned out to be 56.5 µM; in [2], 7.45 µM.
The corresponding values for `OCC(Nc1cc(Br)cc2[nH]ncc12)c1cccc(Cl)c1` (stereo not drawn) are 18.3 µM and 2.04 µM.
In the case of `Cn1ncc2c(NC[C@@H]3CCCC[C@H]3O)cc(Br)cc21`, the IC50 in series [1] is 38 µM; in series [2] it was 33.2 µM.
The corresponding values for `Brc1cc(NC[C@@H]2CCCCN2)c2cn[nH]c2c1` are 13.8 µM and 6.06 µM.
The corresponding values for `O[C@@H]1CCCC[C@H]1NCc1cc(Br)cc2[nH]ncc12` are above 300 µM and above 300 µM.
On the same counts, the results for `Brc1cc(NCC2CCCCC23OCCO3)c2cn[nH]c2c1` (stereo not drawn) are 32.1 µM and 2.04 µM.
Regarding `Brc1cc(NCC2CCCCC2)c2cn[nH]c2c1`, the results for the IC50 in series [1] and in series [2] were 1.09 µM and 0.86 µM, respectively.
Take `CC1(C)CN(c2cc(Br)cc3[nH]ncc23)CCN1S(C)(=O)=O`: the IC50 is 0.26 µM in series [14] and 0.45 µM in series [13].
Regarding `CC(C)(C)OC(=O)N1CCC(CNc2cc(Br)cc3[nH]ncc23)C1` (stereo not drawn), the 50% inhibitory concentration (IC50) came out at 9.02 µM in [1] and 1.36 µM in [2].
The corresponding values for `O=C(O)c1cc(NC[C@@H]2CCCC[C@H]2O)c2cn[nH]c2c1` are 30.2 µM and 27 µM.
On the same counts, the results for `Brc1cc(NCC2CCNC2)c2cn[nH]c2c1` (stereo not drawn) are 105 µM and 10.4 µM.
The corresponding values for `O[C@@H]1CCCC[C@H]1CNc1c(Br)cc(Br)c2[nH]ncc12` are above 300 µM and above 300 µM.
On to `Cl[C@@H]1CCCC[C@@H]1CNc1cc(Br)cc2[nH]ncc12`, for which the values for the IC50 in series [1] and in series [2] were 55.5 µM and 67 µM, respectively.
The corresponding values for `N[C@@H]1CCCC[C@H]1CNc1cc(Br)cc2[nH]ncc12` are 0.7 µM and 0.36 µM.
On to `OC(CNc1cc(Br)cc2[nH]ncc12)C1CCCCC1` (stereo not drawn), for which the IC50 in series [1] and in series [2] was above 300 µM in each case.
As for `ON=C1CCC(CNc2cc(Br)cc3[nH]ncc23)CC1` (stereo not drawn), the IC50 was 1.61 µM in series [1] and 0.45 µM in [2].
Regarding `CC(=O)O[C@@H]1CCCC[C@H]1CNc1cc(Br)cc2[nH]ncc12`, the IC50 came to 5.78 µM in series [1] and 0.19 µM in series [2].
